Data on two molecules can be found in PMC4645160, “Targeting kinases with anilinopyrimidines: discovery of N-phenyl-N’-[4-(pyrimidin-4-ylamino)phenyl]urea derivatives as selective inhibitors of class III receptor tyrosine kinase subfamily” (Scientific Reports, 2015).

The test system of experiment [1] is LoVo cells. As to the kind of experiment: MTT cytotoxicity assay, LoVo colon carcinoma cells. The note with it: Homo sapiens, MTT test, 72 h, read-out: LoVo IC50 (μM) ± SD. Type of experiment: cell-based. The protocol:
(§1) The cytotoxic profile of 19 and 27 was assessed on a wider panel of human tumor cell lines including also examples of breast (MCF-7), cervical (A431), colorectal (HCT-15), and ovarian (2008) cancers as well as melanoma (A375), besides lung (A549) and pancreatic (BxPC3) cancer cells. IC50 values, calculated from the dose-survival curves obtained after 72 h of drug treatment from the MTT test, are reported in Table 2. […] Both compounds were endowed with a cytotoxic potency higher than that of SU, eliciting IC50 values in the low micromolar range.
(§2) All compounds, except derivative 27, were dissolved in DMSO just before the experiment, and a calculated amount of drug solution was added to the cell growth medium to a final solvent concentration of 0.5%, which had no discernible effect on cell killing. Compound 27 was dissolved in a 0.9% NaCl solution just before the experiment.
(§3) Human lung (A549), breast (MCF-7), pancreas (BxPC3), and colon (LoVo) carcinoma cell lines along with melanoma (A375) were obtained from American Type Culture Collection (ATCC, Rockville, MD). Human non-tumor embryonic kidney HEK293 cells were obtained from European Collection of Cell Cultures (ECACC, Salisbury, UK). Human cervical carcinoma A431cells were kindly provided by Prof. F. Zunino (Division of Experimental Oncology B, Istituto Nazionale dei Tumori, Milan, Italy). Human ovarian cancer 2008 cells were kindly provided by Prof. G. Marverti (Dept. of Biomedical Science of Modena University, Italy). […]
(§4) The growth inhibitory effect towards human cell lines was evaluated by means of MTT (tetrazolium salt reduction) assay. […] After overnight incubation, the inhibition of cell growth induced by the tested complexes was detected by measuring the absorbance of each well at 570 nm using a Bio-Rad 680 microplate reader (Bio-Rad, Hercules, CA). Mean absorbance for each drug dose was expressed as a percentage of the control untreated well absorbance and plotted vs drug concentration.
For orientation: Formazan colour is commonly taken as a measure of viable cells.

In experiment [2] the test system is HEK293 cells. Kind of experiment: MTT cytotoxicity assay, non-tumor HEK293 cells. Type of experiment: cell-based, human. The note with it: for IC50: Homo sapiens, HEK293, MTT test, 72 h, non-tumor cells, read-out: HEK293 IC50 (μM) ± SD. On the procedure: F. Zunino (Division of Experimental Oncology B, Istituto Nazionale dei Tumori, Milan, Italy).
The growth inhibitory effect towards human cell lines was evaluated by means of MTT (tetrazolium salt reduction) assay. […] Triplicate cultures were established for each treatment.

For experiment [3], the target named is T1, KIT (Homo sapiens, UniProt P10721).
T1 construct: purchased DiscoverX (KinomeScan service)
T1 sequence (P10721 26-976): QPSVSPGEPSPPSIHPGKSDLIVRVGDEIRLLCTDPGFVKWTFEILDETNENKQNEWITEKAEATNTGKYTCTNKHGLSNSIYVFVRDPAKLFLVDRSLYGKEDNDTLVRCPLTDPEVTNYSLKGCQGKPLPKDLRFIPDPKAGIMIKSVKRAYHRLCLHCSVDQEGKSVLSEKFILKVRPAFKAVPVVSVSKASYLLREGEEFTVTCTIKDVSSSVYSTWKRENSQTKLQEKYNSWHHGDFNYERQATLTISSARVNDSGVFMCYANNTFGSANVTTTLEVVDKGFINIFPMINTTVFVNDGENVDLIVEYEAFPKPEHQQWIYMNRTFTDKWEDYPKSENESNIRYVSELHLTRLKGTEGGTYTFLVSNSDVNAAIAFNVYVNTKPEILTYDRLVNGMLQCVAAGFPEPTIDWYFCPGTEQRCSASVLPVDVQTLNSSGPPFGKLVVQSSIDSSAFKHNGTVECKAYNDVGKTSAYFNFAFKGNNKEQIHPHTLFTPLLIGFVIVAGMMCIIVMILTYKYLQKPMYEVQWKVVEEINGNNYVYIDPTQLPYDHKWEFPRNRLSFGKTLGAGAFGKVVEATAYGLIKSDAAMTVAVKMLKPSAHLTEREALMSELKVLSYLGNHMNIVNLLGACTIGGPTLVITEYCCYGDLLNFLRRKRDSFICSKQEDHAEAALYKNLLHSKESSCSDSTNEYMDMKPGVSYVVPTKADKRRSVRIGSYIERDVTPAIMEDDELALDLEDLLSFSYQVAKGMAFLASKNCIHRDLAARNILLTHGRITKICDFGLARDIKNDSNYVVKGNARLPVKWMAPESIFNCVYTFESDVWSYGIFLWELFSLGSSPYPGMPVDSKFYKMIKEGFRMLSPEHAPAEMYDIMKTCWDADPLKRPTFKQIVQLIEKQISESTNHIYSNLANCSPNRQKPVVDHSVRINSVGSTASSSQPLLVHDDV
Kind of experiment: KinomeScan Kd determination, KIT. Type of experiment: binding. The note with it: for KdRTK/KdKIT, KIT: Kd KIT over Kd KIT; for Kd: KinomeScan. The protocol: The compounds were evaluated using the KinomeScan™ platform (http://www.discoverx.com/services/drug-discovery-development-services/kinase-profiling/kinomescan), that measures the ability of the test compound to disrupt the complex between a high affinity ATP-mimic probe immobilized on a solid support and the kinase of interest. The KinomeScan is a very helpful technology for the fast and reliable screening of a number of compounds against a wide and customizable panel of kinases. Besides, it is not based on the use of hazardous radioactive ^32P-ATP and has a very low rate of false positive (<1%)[44]. The screening platform outputs a “Percent of Control” (POC) value, statistically correlated to the dissociation constant (Kd) value (http://www.discoverx.com/tools-resources/leadhunter-study-reports-data-analysis), for each pair of kinase/ligand. The POC is calculated as reported in equation (1): […]
The ability of compounds 19 and 27 to bind the class III RTK members was measured (Table 2; see also Figs S3 and S4 for dose/response curves).
Figure S3. Dose/response curve for compound 19 against tested kinases for Kd determination. The amount of kinase measured by qPCR (Signal; y-axis) is plotted against the corresponding compound concentration in nM in log10 scale (x-axis). Data points marked with an "x" were not used for Kd determination.
(1 picture or pasted object on this page, not shown here)
Figure S4. Dose/response curve for compound 27 against tested kinases for Kd

Experiment [4] relates to 2008 cells. As to the kind of experiment: MTT cytotoxicity assay, 2008 ovarian cancer cells. The note with it: Homo sapiens; MTT test, 72 h; read-out: 2008 IC50 (μM) ± SD. In kind it is cell-based. The protocol:
as §1, §2, §3, §4

The test system of experiment [5] is A549 cells. Kind of experiment: MTT cytotoxicity assay, A549 lung cancer cells. Type of experiment: cell-based, human. The conditions noted are these: for IC50: Homo sapiens, A549, 72 h, MTT test, 72 h of drug treatment, read-out: A549 IC50 (μM) ± SD. On the procedure: Compounds active against at least one kinase among EGFR and class III RTKs were evaluated for their cytotoxic properties against two different human cancer cell lines, namely non small cells A549 lung cancer cells (sensitive to EGFR inhibitors)[46] and pancreatic BxPC3 adenocarcinoma (sensitive to both PDGFRβ and EGFR inhibitors)[47][48] cells. […] The results, expressed as IC50 values (μM) calculated from the dose-survival curves obtained after 72 h of drug treatment from the MTT test, are reported in Table 1.
as §2
Human lung (A549), breast (MCF-7), pancreas (BxPC3), and colon (LoVo) carcinoma cell lines along with melanoma (A375) were obtained from American Type Culture Collection (ATCC, Rockville, MD). Human non-tumor embryonic kidney HEK293 cells were obtained from European Collection of Cell Cultures (ECACC, Salisbury, UK). Human cervical carcinoma A431cells were kindly provided by Prof. F. Zunino (Division of Experimental Oncology B, Istituto Nazionale dei Tumori, Milan, Italy). Human ovarian cancer 2008 cells were kindly provided by Prof. G. Marverti (Dept. of Biomedical Science of Modena University, Italy). Cell lines were maintained in the logarithmic phase at 37 °C in a 5% carbon dioxide atmosphere using the following culture media containing 10% fetal calf serum (Euroclone, Milan, Italy), antibiotics (50 units ∙ mL^−1 penicillin and 50 μg ∙ mL^−1 streptomycin) and 2 mM l-glutamine: i) RPMI-1640 medium (Euroclone) for MCF-7, A431, BxPC3 and 2008 cells; ii) F-12 HAM’S (Sigma Chemical Co.) for A549 and LoVo cells; iii) D-MEM medium (Euroclone) for HEK293 cells.
The growth inhibitory effect towards human cell lines was evaluated by means of MTT (tetrazolium salt reduction) assay. Briefly, 3–8 ∙ 10^3 cells/well, dependent upon the growth characteristics of the cell line, were seeded in 96-well microplates in growth medium (100 μL) and then incubated at 37 °C in a 5% carbon dioxide atmosphere. After 24 h, the medium was removed and replaced with a fresh one containing the test compound at the appropriate concentration. Triplicate cultures were established for each treatment. After 72 h, each well was treated with 10 μL of a 5 mg ∙ mL-1 MTT (3-(4,5-dimethylthiazol-2-yl)-2,5-diphenyltetrazolium bromide) saline solution, and after 5 h additional incubation, 100 μL of a sodium dodecylsulfate (SDS) solution in HCl 0.01 M were added. After overnight incubation, the inhibition of cell growth induced by the tested complexes was detected by measuring the absorbance of each well at 570 nm using a Bio-Rad 680 microplate reader (Bio-Rad, Hercules, CA). Mean absorbance for each drug dose was expressed as a percentage of the control untreated well absorbance and plotted vs drug concentration.

Turning to `O=C(CN1CCOCC1)Nc1cccc(-c2cc(Nc3ccc(NC(=O)Nc4ccccc4)cc3)ncn2)c1` [Compound 27], the IC50 (as a rule, the concentration that gives 50% inhibition) amounted to 7.76 ± 1.28 µM in experiment [1], 10 µM in experiment [2], 1.82 ± 0.73 µM in experiment [4] and 3.11 ± 1.09 µM in experiment [5]. Besides, in experiment [3] (27 versus 19), the “Potency improvement Kd19/Kd27, KIT” value stood at 2.2. In addition, the “KdRTK/KdKIT, KIT” value in experiment [3] is recorded as 1. In addition, binding in experiment [3] was characterised by a dissociation constant (Kd) of 10 nM.

On to `O=C(Nc1ccccc1)Nc1ccc(Nc2cc(-c3ccccc3)ncn2)cc1` [Compound 19], for which the IC50 came out at 7.45 ± 1.53 µM in experiment [1], 7.33 ± 1.75 µM in experiment [2], 1.98 ± 0.75 µM in experiment [4] and 3.16 ± 1.12 µM in experiment [5]. Moreover, the “Selectivity Index” value in experiment [2] (IC50 toward non cancerous HEK293 cells divided by the average IC50 for the malignant cells (A549, BxPC3)) was found to be 3.84. The “Selectivity index, folds higher than that calculated with SU” value in experiment [2] (SI of compound versus SI of SU) was “approximately 1.5”. Besides, the “KdRTK/KdKIT, KIT” value in experiment [3] is 1. Also, in experiment [3], the Kd (usually the free concentration of one partner at which half of the binding sites on the other are occupied at equilibrium, for simple one-to-one binding) was 22 nM. Besides, in experiment [5] (ratio between IC50 of sunitinib and IC50 of tested compound, A549), the “Potency relative to SU (A549)” value came out at 1.97.
